Patent publication US3962256A, “2-Aminomethyl benzimidazole derivatives” (Delalande S.A., priority 1973, dated 1976)
Counter-ions that a name gives are not always drawn.

Columns and labels:
[1] = system: explorations in the escape enclosure; experiment: Sedative: reduction of number of explorations in the escape enclosure; type: in vivo; details: 100 mg/Kg/p.o., mouse
Description: The compounds of formula (I), administered by oral means to the mouse, reduce the number of explorations in the escape enclosure.
By way of example, the following Table VIII lists the results obtained by the administration of 100 mg/Kg/p.o. of different compounds of formula (I).

[2] = Lethal doses / percentage mortality, oral; type: in vivo; details: for Percentage mortality: 2 000 mg/Kg/p.o., 2000 mg/kg
Description: As a result of a comparison between the pharmacologically active doses mentioned above and the lethal doses listed in the following Table XII, the difference between said doses is sufficiently great to permit the utilisation of the compounds of formula (I) in therapeutics.

[3] = system: gastric secretion measured after Shay ligature; experiment: Gastric antisecretory: reduction of gastric secretion after Shay ligature, rat; type: in vivo; details: 50 mg/Kg/i.d.
Description: Administered by intraduodenal means to a rat, the compounds of formula (I) are capable of reducing the gastric secretion measured after Shay ligature.
By way of example, the following Table V gives the results obtained by administration of 50 mg/Kg/i.d. of different compounds of formula (I).

[4] = system: painful stretchings caused by the intraperitoneal injection of acetic acid; experiment: Analgesic: reduction of painful stretchings caused by intraperitoneal acetic acid, oral, mouse; type: in vivo; details: 100 mg/Kg/p.o.
Description: The compounds of formula (I), administered by oral means to the mouse, are capable of reducing the number of painful stretchings caused by the intraperitoneal injection of acetic acid.
By way of example, the following Table III lists the results obtained by administration of 100 mg/Kg/p.o. of different compounds of formula (I).

[5] = system: bronchoconstriction provoked in the guinea-pig by acetylcholine; experiment: Antibronchoconstrictive and anticholinergic: bronchoconstriction by intravenous acetylcholine, Konzett method; type: in vivo
Description: Injected by intraveinous or intraduodenal means, the compounds of formula (I) are capable of opposing the bronchoconstriction provoked in the guinea-pig by the itraveinous injection of acetylcholine by the Konzett method.
By way of example, the following Table VII lists the results obtained by the administration of different compounds of formula (I)

[6] = system: rat suffering from high blood pressure; experiment: Antihypertensive: return of systolic arterial pressure to normal in rats with high blood pressure; type: in vivo
Description: The compounds of formula (I), administered by oral means to a rat suffering from high blood pressure, are capable of lowering the systolic arteriel pressure.
By way of example, there is provided in the following Table IV the results obtained by administration of different compounds of formula (I).

[7] = system: ventricular fibrillations provoked by the inhalation of chloroform; experiment: Antiarythmic: protection against ventricular fibrillations provoked by inhalation of chloroform; type: in vivo; details: i.p., mouse
Description: Administered by intraperitoneal means, the compounds of formula (I) are capable of protecting the mouse against the ventricular fibrillations provoked by the inhalation of chloroform.

[8] = system: isolated duodenum of the rat; experiment: Spasmolytic: opposing barium chloride contraction of isolated duodenum; details: papaverine as standard
Description: The compounds of formula (I), introduced in the conserving medium are capable of opposing the contractural action of barium chloride on the isolated duodenum of the rat. This activity is evaluated by taking papaverine as standard.

[9] = system: gastric ulcers, provoked in a rat by tying of the pylorus (Shay ulcers); experiment: Antiulcerous: reduction of Shay ulcers (tying of the pylorus); type: in vivo; details: 50 mg/Kg/i.d.
Description: The compounds of formula (I) administered by intraduodenal means reduce the extent of gastric ulcers, provoked in a rat by tying of the pylorus (Shay ulcers).
By way of example, there is listed in the following Table IX, the results obtained by the administrations of 50 mg/Kg/i.d. of different compounds of formula (I).

[10] = system: oedema caused by the sub-plantar injection of carraghenin; experiment: Antiinflammatory: reduction of sub-plantar oedema caused by carraghenin, rat; type: in vivo; details: 100 mg/Kg/p.o.
Description: These properties are shown by a diminution of the local oedema caused by the sub-plantar injection of a phlogogenic agent, such as carraghenin, in the rat following the oral administration of compounds of formula (I).
The following Table VI lists, by way of example, the percentage reduction of the oedems caused by the sub-plantar injection of carraghenin, resulting from the administration of 100 mg/Kg/p.o. of different compounds of formula (I).

volume of urine emitted = experiment: Diuretic: augmentation of urinary elimination; type: in vivo; details: 25 mg/Kg/p.o., mouse, 6 hours
Description: The compounds of formula (I), administered by oral means to the mouse, simultaneously with a volume of 1 ml. of an isotonic solution of sodium chloride per 25 g of the corporeal weight of the mouse, are capable of provoking an augmentation of the volume of urine emitted by reference to control animals, the volume being measured for 6 hours following administration.
By way of example, the following Table XI lists the results obtained by the administration of 25 mg/Kg/p.o. of different compounds of formula (I).

[11] = system: isolated heart of a guinea-pig; experiment: Vasodilatatory: coronary flow of isolated heart; details: 1 μg/ml in perfusion liquid
Description: The compounds of formula (I) are capable of augmenting the flow of the coronary vessels of the isolated heart of a guinea-pig when said compounds are added in the perfusion liquid of said organ.
By way of example, there can be found in the following Table X, the percentage augmentation of the flow of the isolated heart of a guinea-pig by adding different compounds of formula (I) to the perfusion liquid, in a concentration of 1 μg/ml.

CCCCOc1ccc(C(=O)CCn2c(CN3CCCCC3)nc3ccccc32)cc1 [72 464]
Percentage reduction of number of explorations in the escape enclosure [1]: 30% | Percentage mortality [2]: 0%

O=C(CCn1c(CN2CCCCC2)nc2ccccc21)c1ccc(F)cc1 [72 487]
Percentage reductions in volume of gastric secretion [3]: 40% | Percentage reduction of number of painful stretchings [4]: 80% | Percentage inhibition of bronchoconstriction ([5]; 100 mg/kg/i.d.): 60%

O=C(CCn1c(CN2CCCCC2)nc2ccccc21)c1ccccc1 [72 491]
Percentage mortality [2]: 0% | Percentage of rats with high blood pressure whose systolic arteriel pressure is returned to normal ([6]; 200 mg/Kg/p.o.): 50% | Percentage reduction of number of painful stretchings [4]: 65%

COc1cc(C(=O)CCn2c(CN3CCOCC3)nc3ccccc32)cc(OC)c1OC.O=C(O)/C=C\C(=O)O [72 525]
Percentage of rats with high blood pressure whose systolic arteriel pressure is returned to normal ([6]; 200 mg/Kg/p.o.): 50% | Percentage inhibition of bronchoconstriction ([5]; 100 mg/kg/i.d.): 80%

COc1ccc(C(=O)CCn2c(CN3CCCC3)nc3ccccc32)cc1OC [72 617]
Percentage reduction of number of painful stretchings [4]: 70%

CCN(CC)Cc1nc2ccccc2n1CCC(=O)c1ccc(F)cc1.O=C(O)/C=C\C(=O)O [72 568]
Percentage of rats with high blood pressure whose systolic arteriel pressure is returned to normal ([6]; 200 mg/Kg/p.o.): 50% | DE 50 [7]: 200 mg/Kg/i.p.

Cc1ccc(C(=O)CCn2c(CN3CCCCC3)nc3ccccc32)c(C)c1 [72 540]
Percentage reduction of number of explorations in the escape enclosure [1]: 30% | Percentage mortality [2]: 0% | Percentage inhibition of bronchoconstriction ([5]; 100 mg/kg/i.d.): 50%

O=C(CCn1c(CN2CCCC2)nc2ccccc21)c1ccc(F)cc1 [72 708]
spasmolytic activity relative to papaverine [8]: equivalent spasmolytic actvity to that of papaverine | Percentage reduction of Shay ulcers [9]: 30% | Percentage reduction of number of painful stretchings [4]: 60% | Percentage inhibition of bronchoconstriction ([5]; 100 mg/kg/i.d.): 90%

COc1cc(C(=O)CCn2c(CN3CCCC3)nc3ccccc32)cc(OC)c1OC [72 414]
Percentage of rats with high blood pressure whose systolic arteriel pressure is returned to normal ([6]; 150 mg/Kg/p.o.): 75% | Percentage inhibition of bronchoconstriction ([5]; 100 mg/kg/i.d.): 50%

O=C(CCn1c(CN2CCOCC2)nc2ccccc21)c1ccc(Cl)cc1 [72 359]
Percentage mortality [2]: 0% | Percentage reduction of Shay ulcers [9]: 35%

O=C(CCn1c(CN2CCCCCC2)nc2ccccc21)c1ccc(F)cc1 [72 488]
Percentage mortality [2]: 0% | Percentage reduction of Shay ulcers [9]: 25% | DE 50 [7]: 200 mg/Kg/i.p. | Percentage reduction of sub-plantar oedema [10]: 50%

Cc1ccc(C(=O)CCn2c(CN3CCOCC3)nc3ccccc32)c(C)c1 [72 447]
Percentage augmentation of urinary elimination (volume of urine emitted): 70% | Percentage mortality [2]: 0% | Percentage reduction of Shay ulcers [9]: 35% | Percentage reduction of sub-plantar oedema [10]: 40% | Percentage inhibition of bronchoconstriction ([5]; 100 mg/kg/i.d.): 50%

Cc1ccc(C(=O)CCn2c(CN3CCOCC3)nc3ccccc32)cc1 [72 478]
Percentage mortality [2]: 0% | Percentage augmentations of flow of isolated heart of a guinea-pig [11]: 50%

CCN(CC)Cc1nc2ccccc2n1CCC(=O)c1ccc(Cl)cc1 [72 390]
Percentage mortality [2]: 0% | Percentage reduction of Shay ulcers [9]: 40% | Percentage reduction of sub-plantar oedema [10]: 60%

CCN(CC)Cc1nc2ccccc2n1CCC(=O)c1ccccc1 [72 573, 1-(2'-benzoylethyl maleate)-2-diethylaminomethyl benzimidazole]
spasmolytic activity relative to papaverine [8]: equivalent spasmolytic actvity to that of papaverine | mortality ([2]; in vivo, po, 1 250 mg/Kg/p.o.): ~50% | Percentage inhibition of bronchoconstriction ([5]; 5 mg/kg/i.v.): 100%
